Results from patent publication US20260124184A1, “ONCE DAILY ALDOSTERONE SYNTHASE INHIBITOR (R)-(+)-5-(P-CYANOPHENYL)-5,6,7,8-TETRAHYDROIMIDAZO[L,5-A]PYRIDINE” (priority 2022, published 2026).
Where two headings read alike, the source gives them in different places.

System: patients with primary aldosteronism
Experimental: A double-blind, randomized, Phase 2 trial was conducted between November 2019 and June 2022 at 11 centres in Italy, Switzerland and the Netherlands (NCT04007406). […] Patients requiring fixed-dose antihypertensive therapy continued treatment throughout the study; steroid therapies, β-adrenergic and renin-angiotensin-aldosterone system blockers were not permitted. At 14-day intervals, office blood pressures were recorded and blood samples were taken for measurement of steroid and peptide hormones and electrolytes at a central laboratory.

For “(R)-(+)-5-(p-cyanophenyl)-5,6,7,8-tetrahydroimidazolium[1,5-a]pyridine dihydrogen phosphate [dexfadrostat phosphate]”, the “plasma potassium concentration, mean” value (baseline potassium <3.6 mmol/L, 4 mg QD, Day 14) was 4.1 mmol/L, the “plasma potassium concentration, mean” value (baseline potassium <3.6 mmol/L, 4 mg QD, Day 28) was 3.8 mmol/L and the “plasma potassium concentration, mean” value (baseline potassium <3.6 mmol/L, 4 mg QD, Day 42) was 3.9 mmol/L. For the same substance, the “plasma potassium concentration, mean” value (baseline potassium <3.6 mmol/L, 4 mg QD, Day 56) was 4.0 mmol/L, the “plasma potassium concentration, mean” value (baseline potassium <3.6 mmol/L, 4 mg QD, Day 70 (placebo withdrawal)) was 3.3 mmol/L and the “plasma potassium concentration, mean” value (baseline potassium <3.6 mmol/L, 8 mg QD, Day 1 (baseline)) was 3.3 mmol/L. For the same substance, the “plasma potassium concentration, mean” value (baseline potassium <3.6 mmol/L, 8 mg QD, Day 14) was 4.2 mmol/L, the “plasma potassium concentration, mean” value (baseline potassium <3.6 mmol/L, 8 mg QD, Day 28) was 3.9 mmol/L and the “plasma potassium concentration, mean” value (baseline potassium <3.6 mmol/L, 8 mg QD, Day 42) was 4.0 mmol/L. For the same substance, the “plasma potassium concentration, mean” value (baseline potassium <3.6 mmol/L, 8 mg QD, Day 56) was 4.0 mmol/L, the “plasma potassium concentration, mean” value (baseline potassium <3.6 mmol/L, 8 mg QD, Day 70 (placebo withdrawal)) was 3.7 mmol/L and the “plasma potassium concentration, mean” value (baseline potassium <3.6 mmol/L, 12 mg QD, Day 1 (baseline)) was 3.3 mmol/L. For the same substance, the “plasma potassium concentration, mean” value (baseline potassium <3.6 mmol/L, 12 mg QD, Day 14) was 3.9 mmol/L, the “plasma potassium concentration, mean” value (baseline potassium <3.6 mmol/L, 12 mg QD, Day 28) was 4.0 mmol/L and the “plasma potassium concentration, mean” value (baseline potassium <3.6 mmol/L, 12 mg QD, Day 42) was 4.1 mmol/L. The “plasma potassium concentration, mean” value (baseline potassium <3.6 mmol/L, 12 mg QD, Day 56) was 3.8 mmol/L, the “plasma potassium concentration, mean” value (baseline potassium <3.6 mmol/L, 12 mg QD, Day 70 (placebo withdrawal)) was 3.7 mmol/L and the “plasma potassium concentration, mean” value (baseline potassium ≤3.0 mmol/L, all doses QD, Day 1 (baseline)) was 2.9 mmol/L. For the same substance, the “plasma potassium concentration, mean” value (baseline potassium ≤3.0 mmol/L, all doses QD, Day 14) was 3.9 mmol/L, the “plasma potassium concentration, mean” value (baseline potassium ≤3.0 mmol/L, all doses QD, Day 28) was 3.9 mmol/L and the “plasma potassium concentration, mean” value (baseline potassium ≤3.0 mmol/L, all doses QD, Day 42) was 4.0 mmol/L. The “plasma potassium concentration, mean” value (baseline potassium ≤3.0 mmol/L, all doses QD, Day 56) was 3.9 mmol/L, the “plasma potassium concentration, mean” value (baseline potassium ≤3.0 mmol/L, all doses QD, Day 70 (placebo withdrawal)) was 3.5 mmol/L and the “plasma potassium concentration, mean” value (baseline potassium ≥3.6 mmol/L, 4 mg QD, Day 1 (baseline)) was 3.8 mmol/L. The “plasma potassium concentration, mean” value (baseline potassium ≥3.6 mmol/L, 4 mg QD, Day 14) was 4.6 mmol/L, the “plasma potassium concentration, mean” value (baseline potassium ≥3.6 mmol/L, 4 mg QD, Day 28) was 4.0 mmol/L and the “plasma potassium concentration, mean” value (baseline potassium ≥3.6 mmol/L, 4 mg QD, Day 42) was 4.3 mmol/L. The “plasma potassium concentration, mean” value (baseline potassium ≥3.6 mmol/L, 4 mg QD, Day 56) was 4.3 mmol/L, the “plasma potassium concentration, mean” value (baseline potassium ≥3.6 mmol/L, 4 mg QD, Day 70 (placebo withdrawal)) was 4.0 mmol/L and the “plasma potassium concentration, mean” value (baseline potassium ≥3.6 mmol/L, 8 mg QD, Day 1 (baseline)) was 3.8 mmol/L. For the same substance, the “plasma potassium concentration, mean” value (baseline potassium ≥3.6 mmol/L, 8 mg QD, Day 14) was 4.3 mmol/L, the “plasma potassium concentration, mean” value (baseline potassium ≥3.6 mmol/L, 8 mg QD, Day 28) was 4.1 mmol/L and the “plasma potassium concentration, mean” value (baseline potassium ≥3.6 mmol/L, 8 mg QD, Day 42) was 3.9 mmol/L. The “plasma potassium concentration, mean” value (baseline potassium ≥3.6 mmol/L, 8 mg QD, Day 56) was 4.1 mmol/L, the “plasma potassium concentration, mean” value (baseline potassium ≥3.6 mmol/L, 8 mg QD, Day 70 (placebo withdrawal)) was 3.9 mmol/L and the “plasma potassium concentration, mean” value (baseline potassium ≥3.6 mmol/L, 12 mg QD, Day 1 (baseline)) was 3.9 mmol/L. The “plasma potassium concentration, mean” value (baseline potassium ≥3.6 mmol/L, 12 mg QD, Day 14) was 4.0 mmol/L, the “plasma potassium concentration, mean” value (baseline potassium ≥3.6 mmol/L, 12 mg QD, Day 28) was 4.1 mmol/L and the “plasma potassium concentration, mean” value (baseline potassium ≥3.6 mmol/L, 12 mg QD, Day 42) was 4.0 mmol/L. For the same substance, the “plasma potassium concentration, mean” value (baseline potassium ≥3.6 mmol/L, 12 mg QD, Day 56) was 3.9 mmol/L, the “plasma potassium concentration, mean” value (baseline potassium ≥3.6 mmol/L, 12 mg QD, Day 70 (placebo withdrawal)) was 3.7 mmol/L and the “plasma potassium concentration, mean” value (baseline ≤3.0 mmol/L despite potassium supplements, all doses QD, Day 1 (baseline)) was 3.2 mmol/L. For the same substance, the “plasma potassium concentration, mean” value (baseline ≤3.0 mmol/L despite potassium supplements, all doses QD, Day 14) was 4.0 mmol/L, the “plasma potassium concentration, mean” value (baseline ≤3.0 mmol/L despite potassium supplements, all doses QD, Day 28) was 4.1 mmol/L and the “plasma potassium concentration, mean” value (baseline ≤3.0 mmol/L despite potassium supplements, all doses QD, Day 42) was 4.2 mmol/L. For the same substance, the “plasma potassium concentration, mean” value (baseline ≤3.0 mmol/L despite potassium supplements, all doses QD, Day 56) was 4.0 mmol/L, the “plasma potassium concentration, mean” value (baseline ≤3.0 mmol/L despite potassium supplements, all doses QD, Day 70 (placebo withdrawal)) was 3.8 mmol/L and the “effect on plasma potassium concentration” value (each dose arm, sustained over active treatment period) was “rapid and significant (p<0.001) increase in plasma potassium concentrations”. The “plasma potassium concentration, mean” value (in presence of potassium supplements, all doses QD, Day 1 (baseline)) was 3.3 mmol/L, the “plasma potassium concentration, mean” value (in presence of potassium supplements, all doses QD, Day 14) was 4.1 mmol/L and the “plasma potassium concentration, mean” value (in presence of potassium supplements, all doses QD, Day 28) was 4.0 mmol/L. For the same substance, the “plasma potassium concentration, mean” value (in presence of potassium supplements, all doses QD, Day 42) was 4.1 mmol/L, the “plasma potassium concentration, mean” value (in presence of potassium supplements, all doses QD, Day 56) was 4.1 mmol/L and the “plasma potassium concentration, mean” value (in presence of potassium supplements, all doses QD, Day 70 (placebo withdrawal)) was 3.8 mmol/L.
